This note sets out measurements from a melting point compilation (Tetko et al.).

The structures appear in SMILES notation.

As usually defined, the melting point is the temperature of the solid-liquid transition. Take `Cc1c[nH]c(=O)n1-c1ccccc1N`: the melting point was in the range of 194 to 196 °C.

Regarding `CN1C(=C(C#N)C(=O)CCl)Nc2ccccc21`, the melting point was in the range of 244 to 246 °C.

Take `NC(=O)c1ccn(-c2ccccc2N)n1`: the melting point was 161 to 163 °C.

The compound `Clc1nc(-c2ccsc2)nc2sc3c(c12)CCCC3` came in with a melting point of 148 to 150 °C.

The compound `O=C(NC1CCCCNC1=O)OCC(F)(F)F` (stereo not given) displayed a melting point of 199 to 201 °C.

The compound `O=C(O)C1CCN(c2ccccc2Br)C1=O` (stereo not given) displayed a melting point of 164 to 166 °C.

For the compound `CC(C)(C)NC(=O)c1ccc(C(=O)O)cc1`, the melting point was 217 to 219 °C.

`Cc1ccc(F)c(-c2nc(C(=O)O)no2)c1`: the melting point was 107 to 109 °C.

Compound `O=C(NCc1ccccc1)c1cc2ccccc2cc1O` gave a melting point of 180 to 182 °C.

`Cc1cc(C)c2c(C#N)c[nH]c2n1`: the melting point fell in the range of 316 to 318 °C.

Turning to `CCN1N=C(C(=O)O)CCC1=O`, the melting point was 147 to 149 °C.

As for `Brc1ccc(OCCc2ccccc2)cc1`, the melting point was in the range of 49 to 51 °C.

Regarding `Nc1ccc(CN2CCN(c3ccccn3)CC2)cc1`, the melting point was 101 to 103 °C.

On to `Cn1cccc1C(=O)N1CCNCC1`, for which the melting point fell in the range of 58 to 60 °C.

As to `NC1CCCCC1O` (stereo not given), the melting point was in the range of 162 to 164 °C.

`CCCCn1nnnc1CCl`: the melting point was < 17 °C.

For the compound `Cc1nc(C(=O)N(C)C)ccc1C(=O)O`, the melting point is 136 to 138 °C.

As to `COc1ccc(NC(=O)c2ccccc2N)c(OC)c1`, the melting point lay within 154 to 156 °C.

With `CCN(C)c1ccc(C(C)=O)cc1`, the melting point fell in the range of 41 to 43 °C.

In turn, `CCCc1nn(-c2ccccc2F)c(Cl)c1C(=O)O` showed a melting point of 169 to 171 °C.

On to `COc1ccccc1CNC(N)=O`, for which the melting point is 124 to 126 °C.

Regarding `CC(C)(C)OC(=O)Nc1cnc(C(=O)O)cn1`, the melting point is 261 to 263 °C.

In the case of `CCc1nsc(S)n1`, the melting point fell in the range of 144 to 146 °C.

The compound `OC(CC1COCCN1)c1ccccc1` (stereo not given) returned a melting point of 74 to 76 °C.

Compound `O=C(O)c1cc(S(=O)(=O)N2CCOCC2)c(Cl)cc1Cl` had a melting point of 183 to 185 °C.

`O=C1CCCc2c1sc1ccccc21` showed a melting point of 113 to 115 °C.

`O=C(O)c1ccc(NS(=O)(=O)c2ccccc2)cc1` displayed a melting point of 209 to 211 °C.

In turn, `CCOC(CC(N)=O)OCC` showed a melting point of 51 to 53 °C.

Take `CS(=O)(=O)CC1(CC(=O)O)CC1`: the melting point was in the range of 89 to 91 °C.

Take `Nc1nc(-c2ccc(Cl)s2)ns1`: the melting point is 151 to 153 °C.

Turning to `O=C(O)c1csc(-c2ccccc2)n1`, the melting point was 160 to 161 °C.

Compound `Cc1cc(NC(=O)OC(C)(C)C)ccn1` displayed a melting point of 167 to 169 °C.

For `CC1CCCCN1S(=O)(=O)c1ccc(C(=O)O)cc1` (stereo not given), the melting point fell in the range of 201 to 205 °C.

On to `Cc1c(N)cccc1S(C)(=O)=O`, for which the melting point fell in the range of 117 to 119 °C.

Compound `NC(=O)c1n[nH]c2ccc(N)cc12` gave a melting point of 199 to 201 °C.

Turning to `Cn1cc(-c2ncc(C=O)s2)cn1`, the melting point lay within 141 to 143 °C.

As for `O=C(O)CS(=O)(=O)CC(=O)Nc1cccc(Br)c1`, the melting point lay in the range of 165 to 167 °C.

Compound `O=[N+]([O-])c1ccc(Cl)c(CCl)c1` had a melting point of 61 to 63 °C.

In the case of `CCCOc1ccc2c(c1)OCC(C=O)=C2`, the melting point lay within 55 to 57 °C.

Compound `CCCc1ccc2c(c1)C(=O)C(=O)N2` yielded a melting point of 104 to 106 °C.

On to `CC(C)CSc1ccc([N+](=O)[O-])cc1C(=O)O`, for which the melting point is 189 to 191 °C.

The compound `NC(=O)C(N)C(N)=O` yielded a melting point of 171 to 173 °C.

With `CC1Oc2ccccc2N(CC(=O)O)C1=O` (stereo not given), the melting point lay in the range of 146 to 148 °C.

The compound `Nc1ccc(Oc2ccnc3ccccc23)cc1` returned a melting point of 135 to 137 °C.

For the compound `Cc1nc(COc2ccc(Cl)cc2)sc1C(=O)O`, the melting point was 239 to 241 °C.

Compound `CCn1c2ccccc2c2cc(/C=C/C(=O)O)ccc21` came in with a melting point of 243 to 245 °C.

Take `CC(C(=O)c1ccc(Br)cc1)N1C(=O)CCC1=O` (stereo not given): the melting point fell in the range of 171 to 173 °C.

Take `Cc1nn(C)c(Br)c1C#N`: the melting point lay within 109 to 111 °C.

As to `CC(Cl)C(=O)N(c1nccs1)C1CCCCC1` (stereo not given), the melting point was in the range of 82 to 84 °C.

`O=C(O)c1csc(S(=O)(=O)N2CCOCC2)c1` had a melting point of 226 to 228 °C.

Compound `CC(=O)N(c1ccc(F)cc1)c1nc(CCl)cs1` registered a melting point of 127 to 129 °C.

In the case of `Cc1csc(C(O)(CC(=O)O)C(F)(F)F)n1` (stereo not given), the melting point was in the range of 109 to 111 °C.

Take `O=C(O)c1ccc(F)c(COc2ccc(F)cc2)c1`: the melting point lay within 149 to 151 °C.

The compound `[N-]=[N+]=Nc1ccnc(CO)c1` yielded a melting point of 59 to 61 °C.

As for `O=[N+]([O-])c1ccc(Oc2ccc([N+](=O)[O-])cc2)cc1`, the melting point is 144 to 146 °C.

In turn, `CC(=O)NCCc1ccc(S(=O)(=O)Cl)s1` registered a melting point of 87 to 89 °C.

`NC(=S)c1ccc(Br)s1` gave a melting point of 169 to 171 °C.

Consider `CCS(=O)(=O)c1ccc(NC(=O)CCl)c(O)c1`, for which the melting point lay in the range of 207 to 209 °C.

With `CSc1nc(NC(C)=O)n(C(C)=O)n1`, the melting point lay within 226 to 228 °C.

Take `CCOCc1c(C(=O)O)oc2ccccc12`: the melting point lay within 103 to 105 °C.

Turning to `CC(=O)N1CCN(CC(N)=NO)CC1`, the melting point was 199 to 201 °C.

Turning to `CNC(=O)c1ccc(Cl)c(N)c1`, the melting point was 144 to 146 °C.

With `Cc1ccc(Br)c(S(=O)(=O)Cl)c1`, the melting point was in the range of 57 to 59 °C.

With `O=C(O)c1ncoc1C(F)(F)F`, the melting point was 94 to 96 °C.

The compound `Sc1nnc(-c2cccs2)o1` came in with a melting point of 162 to 164 °C.

With `CCn1cc(N2C(=O)C=CC2=O)cn1`, the melting point lay within 92 to 94 °C.

Consider `N#Cc1nc(Cl)ccc1Cl`, for which the melting point lay within 98 to 100 °C.

In turn, `c1ccc(-c2nnn[nH]2)nc1` returned a melting point of 214 to 216 °C.

The compound `Cc1[nH]c(=O)c(C#N)c(C)c1CCC(=O)O` had a melting point of 253 to 257 °C.

In the case of `Cc1cccc(Nc2nnc(S)s2)c1C`, the melting point was 195 to 197 °C.

As to `CCC(=O)Cc1ccc(Cl)cc1Cl`, the melting point lay in the range of 37 to 39 °C.

Regarding `CC(C)n1ncc2c(C(=O)O)cc(-c3ccccc3)nc21`, the melting point was 198 to 200 °C.

With `COc1cc(OC)cc(-n2c(C)c(C)c(C#N)c2N)c1`, the melting point is 166 to 168 °C.

With `CCOc1cccc2[nH]c(C(=O)O)cc12`, the melting point lay in the range of 255 to 257 °C.

`Cc1ccc(S(=O)(=O)OC2CCS(=O)(=O)C2)cc1` (stereo not given): the melting point fell in the range of 80 to 82 °C.

Take `O=S(=O)(NCCOc1ncc(C(F)(F)F)cc1Cl)c1c(F)cccc1F`: the melting point was 110 to 112 °C.

With `O=C(O)C1CCN(c2ncc(C(F)(F)F)cc2Cl)CC1`, the melting point lay within 134 to 136 °C.

With `O=C(O)C(c1ccccc1)N1CCc2ccccc21` (stereo not given), the melting point was in the range of 181 to 183 °C.

`Cc1nnc(C2Cc3ccccc3CN2)o1` (stereo not given) showed a melting point of 65 to 67 °C.

Take `O=[N+]([O-])c1cnc(Cl)c(Br)c1`: the melting point was in the range of 54 to 58 °C.

On to `O=C(O)c1ccc2c(c1)C(=O)N(C1CCS(=O)(=O)C1)C2=O` (stereo not given), for which the melting point was 239 to 241 °C.

The compound `FC(F)(F)c1ccnc(N2CCNCC2)n1` displayed a melting point of 49 to 51 °C.

`CNS(=O)(=O)c1ccc(C#N)cc1` registered a melting point of 128 to 130 °C.

On to `O=C(O)c1nnn(-c2ccccc2)c1C(F)(F)F`, for which the melting point was in the range of 132 to 134 °C.

On to `CN(C)c1ccc(N2C(=O)C=CC2=O)cc1`, for which the melting point lay in the range of 152 to 154 °C.

The compound `Nc1cccc(CN2CCC(O)CC2)c1` had a melting point of 146 to 148 °C.

`Cn1c(S)nnc1-c1ccc(F)cc1` yielded a melting point of 111 to 115 °C.

For `Cc1ccc(C(C)C)c(OC(C)C(=O)O)c1` (stereo not given), the melting point is 61 to 63 °C.

In turn, `O=c1cc(-c2ccccc2)c2cc(Cl)ccc2[nH]1` yielded a melting point of 257 to 259 °C.

Compound `CC(C)(C)OC(=O)N1CCN(c2ccc(N)nc2)CC1` registered a melting point of 131 to 133 °C.

The compound `CC(C)Cn1[nH]c(CC(=O)O)cc1=O` showed a melting point of 164 to 166 °C.

The compound `Sc1nnc(-c2c[nH]c3ccccc23)o1` returned a melting point of 218 to 225 °C.

`COCCOc1ccc(C(=O)O)cc1[N+](=O)[O-]` came in with a melting point of 134 to 136 °C.

Compound `COc1ccc2[nH]c(C)nc2c1` yielded a melting point of 119 to 121 °C.

With `COc1ccc(C=NO)cc1OCc1ccccc1`, the melting point lay within 75 to 77 °C.

Take `N#Cc1ccc2c(c1)CCO2`: the melting point was in the range of 64 to 66 °C.

The compound `CCCCCOc1ccc2cc(C(=O)O)[nH]c2c1` displayed a melting point of 162 to 164 °C.

For `CC(SCc1ncc(-c2ccc(Cl)cc2)o1)C(=O)O` (stereo not given), the melting point lay in the range of 129 to 131 °C.

With `NCc1cccnc1N1CCC(C(N)=O)CC1`, the melting point was 129 to 131 °C.

As to `COc1ccc(NC#N)cc1Cl`, the melting point was in the range of 95 to 97 °C.

For `O=S(=O)(Cl)c1ccc(Cl)cc1C(F)(F)F`, the melting point fell in the range of 45 to 47 °C.

Compound `NC1CCN(C(=O)C2CCCCC2)C1` (stereo not given) yielded a melting point of 72 to 74 °C.

Regarding `CC(C)(C)OC(=O)NC1C2CCC(C2)C1C(=O)O` (stereo not given), the melting point was in the range of 140 to 142 °C.

In the case of `Cc1ccc(O)c(C(=O)N2CCSCC2)c1`, the melting point lay within 155 to 157 °C.

As for `N#Cc1c(S)nc(CCc2ccccc2)c2c1CCCC2`, the melting point is 224 to 226 °C.

Turning to `O=C(O)CCNC(=O)C1CCCC1`, the melting point lay within 128 to 130 °C.

Regarding `O=S(=O)(c1ccc(Cl)c(N=C=S)c1)N1CCOCC1`, the melting point was in the range of 118 to 120 °C.

`NN=C(Nc1ccccc1)c1cc(F)cc(F)c1` registered a melting point of 99 to 101 °C.

Regarding `O=C(O)CCS(=O)(=O)C1CCCC1`, the melting point lay within 98 to 100 °C.

In the case of `COC(=O)c1cc(N)c(Br)cc1F`, the melting point was 87 to 89 °C.

The compound `NCc1ccc(N2CCN(c3ncccn3)CC2)c(F)c1` had a melting point of 90 to 92 °C.

For `CNC(=O)c1ccnc(F)c1`, the melting point lay in the range of 127 to 129 °C.

Take `O=C(O)C(O)C1CC1` (stereo not given): the melting point was in the range of 66 to 68 °C.

In turn, `O=C1Nc2ccc(S(=O)(=O)Cl)cc2C1=O` showed a melting point of 184 to 186 °C.

Compound `O=C(O)C1=COCCC1` had a melting point of 71 to 73 °C.

`Cc1n[nH]c(-c2ccc(Cl)c(Cl)c2)n1` had a melting point of 200 to 202 °C.

For `CCOC(=O)C(NC(=O)c1ccccc1)C(=O)OCC`, the melting point is 62 to 64 °C.

The compound `O=C(O)c1ccc2nncn2c1` yielded a melting point of 315 to 317 °C.

For the compound `CN(C(=O)c1ccncc1)c1ccc(C#N)cc1`, the melting point is 105 to 107 °C.

Consider `CC(C)(C)OC(=O)N1CCNc2ccccc2C1`, for which the melting point was in the range of 69 to 71 °C.
